The molecules below were run on dd-strain male mice (assay: Acute toxicity test (minimum lethal dose, oral)). Conditions: oral administration, three mice per group, mortality seven days after administration.
Format: in vivo
Experimental: Test compounds were orally administered to groups of dd-strain male mice weighing 20 ± 1 g, each group consisting of three mice. Seven days after the administration, minimum lethal dose (MLD) of each compound was determined by observing the mortality.

SMILES	MLD [mg/kg]
CCn1c(=O)c2c(nc(/C=C/c3cccc(OC)c3)n2C)n(CC)c1=O [Compound 40, (E)-1,3-Diethyl-8-(3-methoxystyryl)-7-methylxanthine]	> 300
CCn1c(=O)c2c(nc(/C=C/c3ccc(C)cc3)n2C)n(CC)c1=O [Compound 44, (E)-1,3-Diethyl-7-methyl-8-(4-methylstyryl)xanthine]	> 100
CCn1c(=O)c2c(nc(/C=C/c3cccc(OC)c3[N+](=O)[O-])n2C)n(CC)c1=O [Compound 64, (E)-1,3-Diethyl-8-(3-methoxy-2-nitrostyryl)-7-methylxanthine]	> 100
CCn1c(=O)c2c(nc(/C=C/c3ccc(Br)cc3)n2C)n(CC)c1=O [Compound 78, (E)-8-(4-Bromostyryl)-1,3-diethyl-7-methylxanthine]	> 100
CCn1c(=O)c2c(nc(/C=C/c3ccc(OCOC)cc3)n2C)n(CC)c1=O [Compound 82, (E)-1,3-Diethyl-8-(4-methoxymethoxystyryl)-7-methylxanthine]	> 100
CCn1c(=O)c2c(nc(/C=C/c3ccc(F)cc3)n2C)n(CC)c1=O [Compound 84, (E)-1,3-Diethyl-8-(4-fluorostyryl)-7-methylxanthine]	> 100
CCn1c(=O)c2c(nc(/C=C/c3cc(C(F)(F)F)cc(C(F)(F)F)c3)n2C)n(CC)c1=O [Compound 86, (E)-8-[3,5-Bis(trifluoromethyl)styryl]-1,3-diethyl-7-methylxanthine]	> 100
CCn1c(=O)c2c(nc(/C=C/c3cccc([N+](=O)[O-])c3)n2C)n(CC)c1=O [Compound 90, (E)-1,3-Diethyl-7-methyl-8-(3-nitrostyryl)xanthine]	> 100
CCn1c(=O)c2c(nc(/C=C/c3cc4c(cc3Br)OCO4)n2C)n(CC)c1=O [Compound 96, (E)-8-(2-Bromo-4,5-methylenedioxystyryl)-1,3-diethyl-7-methylxanthine]	> 100

What follows are molecules tested against T1, A₂ receptor (Rattus norvegicus, UniProt P30543) (assay: Adenosine A₂ receptor binding test (³H-CGS 21680 binding)). Conditions: 10^-6M; [^3H]CGS 21680 was used, rat corpus striatum; read-out: A2 Receptor Inhibition (%).
T1 construct: from tissue; host or cells: rat corpus striatum membrane preparation
Experimental: The similar procedure as in the above-described adenosine A₁ receptor binding test was repeated using rat corpus striatum to obtain the final precipitate of the tissue thereof. The precipitate was suspended in 50 mM Tris HCl buffer containing 10 mM magnesium chloride and 0.02 unit/mg tissue of adenosine deaminase (manufactured by Sigma Co.) to give a tissue concentration of 5 mg (wet weight)/ml.
The similar procedure as above was repeated to determine the radioactivity bound to the A₂ receptors using 50 µl of CGS 21680 labeled with tritium [³H-2-[p-(2-carboxyethyl)-phenethylamino]-5'-(N-ethylcarboxamide)adenosine: 40 Ci/mmol, manufactured by New England Nuclear Co. (J. Pharmacol. Exp. Ther., 251, 888 (1989)] (final concentration: 4.0 nM) in place of 50 µl of the mixture of N-ethylcarboxamidoadenosine labeled with tritium (³H-NECA: 26 Ci/mmol, manufactured by Amersham Co.) (final concentration: 3.8 nM) and cyclopentyladenosine (CPA, manufactured by Sigma Co.) (final concentration: 50 nM).
The inhibition rate of the test compound against the binding of A₂ receptors (³H-CGS 21680 binding) was calculated by the following equation: [formula] [Notes] • 1. "B" means the amount of radioactivity of ³H-CGS 21680 bound in the presence of a test compound at a concentration shown in Table 4. • 2. "T" means the amount of radioactivity of ³H-CGS 21680 bound in the absence of a test compound. • 3. "N" means the amount of radioactivity of ³H-CGS 21680 bound in the presence of 100 µM CPA.

T1 sequence (P30543 whole entry): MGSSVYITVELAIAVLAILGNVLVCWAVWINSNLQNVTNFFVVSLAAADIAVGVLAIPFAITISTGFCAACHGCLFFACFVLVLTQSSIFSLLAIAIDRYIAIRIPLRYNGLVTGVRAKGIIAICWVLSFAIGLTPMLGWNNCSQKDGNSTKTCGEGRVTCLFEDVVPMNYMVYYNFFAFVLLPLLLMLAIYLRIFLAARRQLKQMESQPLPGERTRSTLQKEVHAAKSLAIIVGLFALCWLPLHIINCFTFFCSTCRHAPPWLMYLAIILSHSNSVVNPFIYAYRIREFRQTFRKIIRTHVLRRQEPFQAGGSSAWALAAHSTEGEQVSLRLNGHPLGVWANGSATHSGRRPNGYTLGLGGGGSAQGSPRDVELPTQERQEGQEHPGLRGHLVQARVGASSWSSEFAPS

SMILES	inhibition at 1 µM [%]
CCn1c(=O)c2c(nc(/C=C/c3cccc(OC)c3)n2C)n(CC)c1=O [Compound 40, (E)-1,3-Diethyl-8-(3-methoxystyryl)-7-methylxanthine]	98
CCn1c(=O)c2c(nc(/C=C/c3ccc(C)cc3)n2C)n(CC)c1=O [Compound 44, (E)-1,3-Diethyl-7-methyl-8-(4-methylstyryl)xanthine]	103
CCn1c(=O)c2c(nc(/C=C/c3cccc(OC)c3[N+](=O)[O-])n2C)n(CC)c1=O [Compound 64, (E)-1,3-Diethyl-8-(3-methoxy-2-nitrostyryl)-7-methylxanthine]	94
CCn1c(=O)c2c(nc(/C=C/c3ccc(Br)cc3)n2C)n(CC)c1=O [Compound 78, (E)-8-(4-Bromostyryl)-1,3-diethyl-7-methylxanthine]	89
CCn1c(=O)c2c(nc(/C=C/c3ccc(OCOC)cc3)n2C)n(CC)c1=O [Compound 82, (E)-1,3-Diethyl-8-(4-methoxymethoxystyryl)-7-methylxanthine]	98
CCn1c(=O)c2c(nc(/C=C/c3ccc(F)cc3)n2C)n(CC)c1=O [Compound 84, (E)-1,3-Diethyl-8-(4-fluorostyryl)-7-methylxanthine]	100
CCn1c(=O)c2c(nc(/C=C/c3cc(C(F)(F)F)cc(C(F)(F)F)c3)n2C)n(CC)c1=O [Compound 86, (E)-8-[3,5-Bis(trifluoromethyl)styryl]-1,3-diethyl-7-methylxanthine]	73
CCn1c(=O)c2c(nc(/C=C/c3cccc([N+](=O)[O-])c3)n2C)n(CC)c1=O [Compound 90, (E)-1,3-Diethyl-7-methyl-8-(3-nitrostyryl)xanthine]	94
CCn1c(=O)c2c(nc(/C=C/c3cc4c(cc3Br)OCO4)n2C)n(CC)c1=O [Compound 96, (E)-8-(2-Bromo-4,5-methylenedioxystyryl)-1,3-diethyl-7-methylxanthine]	101

Same assay, conditions: 10^-7M; [^3H]CGS 21680 was used, rat corpus striatum; read-out: A2 Receptor Inhibition (%)

SMILES	inhibition at 0.1 µM [%]
CCn1c(=O)c2c(nc(/C=C/c3cccc(OC)c3)n2C)n(CC)c1=O [Compound 40, (E)-1,3-Diethyl-8-(3-methoxystyryl)-7-methylxanthine]	88
CCn1c(=O)c2c(nc(/C=C/c3ccc(C)cc3)n2C)n(CC)c1=O [Compound 44, (E)-1,3-Diethyl-7-methyl-8-(4-methylstyryl)xanthine]	64
CCn1c(=O)c2c(nc(/C=C/c3cccc(OC)c3[N+](=O)[O-])n2C)n(CC)c1=O [Compound 64, (E)-1,3-Diethyl-8-(3-methoxy-2-nitrostyryl)-7-methylxanthine]	89
CCn1c(=O)c2c(nc(/C=C/c3ccc(Br)cc3)n2C)n(CC)c1=O [Compound 78, (E)-8-(4-Bromostyryl)-1,3-diethyl-7-methylxanthine]	68
CCn1c(=O)c2c(nc(/C=C/c3ccc(OCOC)cc3)n2C)n(CC)c1=O [Compound 82, (E)-1,3-Diethyl-8-(4-methoxymethoxystyryl)-7-methylxanthine]	86
CCn1c(=O)c2c(nc(/C=C/c3ccc(F)cc3)n2C)n(CC)c1=O [Compound 84, (E)-1,3-Diethyl-8-(4-fluorostyryl)-7-methylxanthine]	82
CCn1c(=O)c2c(nc(/C=C/c3cc(C(F)(F)F)cc(C(F)(F)F)c3)n2C)n(CC)c1=O [Compound 86, (E)-8-[3,5-Bis(trifluoromethyl)styryl]-1,3-diethyl-7-methylxanthine]	29
CCn1c(=O)c2c(nc(/C=C/c3cccc([N+](=O)[O-])c3)n2C)n(CC)c1=O [Compound 90, (E)-1,3-Diethyl-7-methyl-8-(3-nitrostyryl)xanthine]	85
CCn1c(=O)c2c(nc(/C=C/c3cc4c(cc3Br)OCO4)n2C)n(CC)c1=O [Compound 96, (E)-8-(2-Bromo-4,5-methylenedioxystyryl)-1,3-diethyl-7-methylxanthine]	84

Each molecule was assayed on Haloperidol-Induced Catalepsy (assay: Effect on haloperidol-induced catalepsy). Conditions: of five mice, catalepsy score not more than 4 points; 10 mg/kg orally.
Format: in vivo, mice
Experimental: Haloperidol (Janssen Pharmaceutica) suspended in 0.3% CMC was intraperitoneally administered to each mouse at a dose of 1.0 mg/kg. Test compounds were suspended in 0.3% CMC or in injectable distilled water (Otsuka Pharmaceutical Co., Ltd.) containing Tween 80. L-DOPA (Kyowa Hakko Kogyo Co., Ltd.) and benserazide hydrochloride (Kyowa Hakko Kogyo Co., Ltd.) were suspended in 0.3% CMC. One hour after the haloperidol administration, the test compound suspensions and the control suspension [injectable distilled water (Otsuka Pharmaceutical Co., Ltd.) containing Tween 80] containing no test compound were orally administered to separate groups of the mice (0.1 ml per 10 g of body weight). One hour after the administration of the test compound, the forelimbs of each mouse and subsequently the hindlimbs of the same mouse were placed on a 4.5 cm-high, 1.0 cm-wide bar and catalepsy was estimated. […] The catalepsy score and the standard of judgment are shown below. […] The number of the animals showing remission against catalepsy is the number of the mice for which the catalepsy score was not more than 4 points. […] The ED₅₀ values were calculated by Probit analysis.

SMILES	Number of the Animals Showing Remission
CCn1c(=O)c2c(nc(/C=C/c3cccc(OC)c3)n2C)n(CC)c1=O [Compound 40, (E)-1,3-Diethyl-8-(3-methoxystyryl)-7-methylxanthine]	5
CCn1c(=O)c2c(nc(/C=C/c3ccc(C)cc3)n2C)n(CC)c1=O [Compound 44, (E)-1,3-Diethyl-7-methyl-8-(4-methylstyryl)xanthine]	3
CCn1c(=O)c2c(nc(/C=C/c3cccc(OC)c3[N+](=O)[O-])n2C)n(CC)c1=O [Compound 64, (E)-1,3-Diethyl-8-(3-methoxy-2-nitrostyryl)-7-methylxanthine]	4
CCn1c(=O)c2c(nc(/C=C/c3ccc(Br)cc3)n2C)n(CC)c1=O [Compound 78, (E)-8-(4-Bromostyryl)-1,3-diethyl-7-methylxanthine]	3
CCn1c(=O)c2c(nc(/C=C/c3ccc(OCOC)cc3)n2C)n(CC)c1=O [Compound 82, (E)-1,3-Diethyl-8-(4-methoxymethoxystyryl)-7-methylxanthine]	5
CCn1c(=O)c2c(nc(/C=C/c3ccc(F)cc3)n2C)n(CC)c1=O [Compound 84, (E)-1,3-Diethyl-8-(4-fluorostyryl)-7-methylxanthine]	4
CCn1c(=O)c2c(nc(/C=C/c3cc(C(F)(F)F)cc(C(F)(F)F)c3)n2C)n(CC)c1=O [Compound 86, (E)-8-[3,5-Bis(trifluoromethyl)styryl]-1,3-diethyl-7-methylxanthine]	3
CCn1c(=O)c2c(nc(/C=C/c3cccc([N+](=O)[O-])c3)n2C)n(CC)c1=O [Compound 90, (E)-1,3-Diethyl-7-methyl-8-(3-nitrostyryl)xanthine]	4

Same assay, conditions: rate of decrease in total score based on control group; 10 mg/kg orally

SMILES	Remission Rate (%)
CCn1c(=O)c2c(nc(/C=C/c3cccc(OC)c3)n2C)n(CC)c1=O [Compound 40, (E)-1,3-Diethyl-8-(3-methoxystyryl)-7-methylxanthine]	88
CCn1c(=O)c2c(nc(/C=C/c3ccc(C)cc3)n2C)n(CC)c1=O [Compound 44, (E)-1,3-Diethyl-7-methyl-8-(4-methylstyryl)xanthine]	32
CCn1c(=O)c2c(nc(/C=C/c3cccc(OC)c3[N+](=O)[O-])n2C)n(CC)c1=O [Compound 64, (E)-1,3-Diethyl-8-(3-methoxy-2-nitrostyryl)-7-methylxanthine]	36
CCn1c(=O)c2c(nc(/C=C/c3ccc(Br)cc3)n2C)n(CC)c1=O [Compound 78, (E)-8-(4-Bromostyryl)-1,3-diethyl-7-methylxanthine]	28
CCn1c(=O)c2c(nc(/C=C/c3ccc(OCOC)cc3)n2C)n(CC)c1=O [Compound 82, (E)-1,3-Diethyl-8-(4-methoxymethoxystyryl)-7-methylxanthine]	64
CCn1c(=O)c2c(nc(/C=C/c3ccc(F)cc3)n2C)n(CC)c1=O [Compound 84, (E)-1,3-Diethyl-8-(4-fluorostyryl)-7-methylxanthine]	32
CCn1c(=O)c2c(nc(/C=C/c3cc(C(F)(F)F)cc(C(F)(F)F)c3)n2C)n(CC)c1=O [Compound 86, (E)-8-[3,5-Bis(trifluoromethyl)styryl]-1,3-diethyl-7-methylxanthine]	36
CCn1c(=O)c2c(nc(/C=C/c3cccc([N+](=O)[O-])c3)n2C)n(CC)c1=O [Compound 90, (E)-1,3-Diethyl-7-methyl-8-(3-nitrostyryl)xanthine]	44

Same assay, conditions: total catalepsy score of five mice (25 points at the full); 10 mg/kg orally, haloperidol 1.0 mg/kg i.p.

SMILES	Total Score
CCn1c(=O)c2c(nc(/C=C/c3cccc(OC)c3)n2C)n(CC)c1=O [Compound 40, (E)-1,3-Diethyl-8-(3-methoxystyryl)-7-methylxanthine]	3
CCn1c(=O)c2c(nc(/C=C/c3ccc(C)cc3)n2C)n(CC)c1=O [Compound 44, (E)-1,3-Diethyl-7-methyl-8-(4-methylstyryl)xanthine]	17
CCn1c(=O)c2c(nc(/C=C/c3cccc(OC)c3[N+](=O)[O-])n2C)n(CC)c1=O [Compound 64, (E)-1,3-Diethyl-8-(3-methoxy-2-nitrostyryl)-7-methylxanthine]	16
CCn1c(=O)c2c(nc(/C=C/c3ccc(Br)cc3)n2C)n(CC)c1=O [Compound 78, (E)-8-(4-Bromostyryl)-1,3-diethyl-7-methylxanthine]	18
CCn1c(=O)c2c(nc(/C=C/c3ccc(OCOC)cc3)n2C)n(CC)c1=O [Compound 82, (E)-1,3-Diethyl-8-(4-methoxymethoxystyryl)-7-methylxanthine]	9
CCn1c(=O)c2c(nc(/C=C/c3ccc(F)cc3)n2C)n(CC)c1=O [Compound 84, (E)-1,3-Diethyl-8-(4-fluorostyryl)-7-methylxanthine]	17
CCn1c(=O)c2c(nc(/C=C/c3cc(C(F)(F)F)cc(C(F)(F)F)c3)n2C)n(CC)c1=O [Compound 86, (E)-8-[3,5-Bis(trifluoromethyl)styryl]-1,3-diethyl-7-methylxanthine]	16
CCn1c(=O)c2c(nc(/C=C/c3cccc([N+](=O)[O-])c3)n2C)n(CC)c1=O [Compound 90, (E)-1,3-Diethyl-7-methyl-8-(3-nitrostyryl)xanthine]	14
